Laboratory results taken from patent US7763585B2, “Methods for inhibiting tumor cell proliferation” (priority 2003, dated 2010).
pIC50: −log10 of the molar value. Read-outs that look alike come from different tables or passages of the source.

Tests used:
[1] = test system: Stat3-dependent luciferase reporter (pLucTKS3); assay: Stat3-dependent firefly luciferase reporter in NIH3T3/v-Src/pLucTKS3; assay type: cell-based, mouse; conditions: NIH3T3/v-Src/pLucTKS3, FIG. 4
Experimental: FIGS. 4A-B show inhibition of Stat3-mediated gene expression in intact cells by platinum complexes. v-Src-transformed mouse fibroblasts that stably express Stat3-dependent (NIH3T3/v-Src/pLucTKS3) and Stat3-independent (NIH3T3/v-Src/pRLSRE) luciferase reporters were treated with platinum complexes for the indicated times. Cytosolic extracts were then prepared from cells for Stat3-dependent firefly luciferase activity (FIG. 4A) and Stat3-independent renilla luciferase measurements (FIG. 4B). Values are the means and S.D. of five independent assays. […]
Cytosolic lysates preparation from fibroblasts for luciferase assays or from baculovirus-infected Sf-9 insect cells have been previously described (Turkson et al., 1998; Turkson et al., 2001; Turkson et al., 1999; Zhang et al., 2000). Luciferase assays were performed as outlined in the supplier's (Promega) manual and measured with a luminometer. […]

[2] = molecular target: T1, Stat1:Stat3 (Mus musculus, UniProt P42225+P42227); assay: EMSA, disruption of Stat1:Stat3 DNA-binding activity in vitro (hSIE probe); assay type: biochemical
T1 construct: endogenous in cells; host or cells: EGF-stimulated fibroblasts (nuclear extract)
Experimental: (§1) FIGS. 1A-D are photographs showing EMSA analyses of DNA-binding activities and effects of platinum complexes. Nuclear extracts containing activated Stat1, Stat3 and Stat5 are treated with the indicated concentrations of platinum complex ISSCPA-1, ISSCPA-3, ISSCPA-7, or PtCl4 for 30 min at room temperature prior to incubation with radiolabeled oligonucleotide probes. […] Positions of complexes of DNA with STAT, E2F1 or NFκB (p65, p50) in gel are labeled. Control lanes represent nuclear extracts that are not pre-incubated with platinum complexes.
(§2) Nuclear extracts were prepared from cell lines and used for EMSA as previously described (Turkson et al., 1998; Yu et al., 1995; Garcia et al., 1997). In some cases, cells were pre-treated with platinum complexes for the indicated times prior to harvesting. Where cells were stimulated with EGF (6 ng/ml), duration of treatment was 15 min. Nuclear extracts were pre-incubated with compounds for 30 min at room temperature prior to incubation with radiolabeled probe. The ^32P-radiolabeled oligonucleotide probes used are hSIE (high affinity sis-inducible element, m67 variant, 5′-[…]-3′) (SEQ ID NO:1) that binds both Stat1 and Stat3 (Garcia et al., 1997; Wagner et al., 1990), MGFe (mammary gland factor element from the bovine β-casein gene promoter, 5′-AGATTTCTAGGAATTCAA-3′) (SEQ ID NO:2) that binds Stat1 and Stat5 (Gouilleux et al., 1995; Seidel et al., 1995), the NF-κB binding oligo (5′-[…]-3′) (SEQ ID NO:3), and the oligonucleotide sequence from the DHFR promoter that binds E2F1.
(§3) Platinum compounds were evaluated for inhibitory activity against STAT DNA-binding in vitro.

[3] = test system: Stat5; assay: EMSA, Stat5 DNA-binding activity in vitro (MGFe probe); assay type: biochemical, mouse; conditions: FIG. 1B
Experimental: as §1, §2, §3

[4] = molecular target: T2, Stat3:Stat3 (Mus musculus, UniProt P42227); assay: EMSA, disruption of Stat3:Stat3 DNA-binding activity in vitro (hSIE probe); assay type: biochemical; conditions: for Level of DNA-binding activity of Stat3 (EMSA): EGF-stimulated fibroblast nuclear extracts, 30 min preincubation, FIG. 1A; for pIC50: nuclear extracts pre-incubated 30 min at room temperature, read-out: IC50 for disruption of STAT DNA-binding activity in vitro, Stat3:Stat3
T2 construct: endogenous in cells; host or cells: EGF-stimulated fibroblasts (nuclear extract)
Experimental: as §1, §2, §3

[5] = molecular target: T3, Stat1:Stat1 (Mus musculus, UniProt P42225); assay: EMSA, disruption of Stat1:Stat1 DNA-binding activity in vitro (hSIE probe); assay type: biochemical; conditions: for Level of DNA-binding activity of Stat1 (EMSA): EGF-stimulated fibroblast nuclear extracts, 30 min preincubation, FIG. 1A
T3 construct: endogenous in cells; host or cells: EGF-stimulated fibroblasts (nuclear extract)
T3 sequence (P42225 2-749 limits assumed): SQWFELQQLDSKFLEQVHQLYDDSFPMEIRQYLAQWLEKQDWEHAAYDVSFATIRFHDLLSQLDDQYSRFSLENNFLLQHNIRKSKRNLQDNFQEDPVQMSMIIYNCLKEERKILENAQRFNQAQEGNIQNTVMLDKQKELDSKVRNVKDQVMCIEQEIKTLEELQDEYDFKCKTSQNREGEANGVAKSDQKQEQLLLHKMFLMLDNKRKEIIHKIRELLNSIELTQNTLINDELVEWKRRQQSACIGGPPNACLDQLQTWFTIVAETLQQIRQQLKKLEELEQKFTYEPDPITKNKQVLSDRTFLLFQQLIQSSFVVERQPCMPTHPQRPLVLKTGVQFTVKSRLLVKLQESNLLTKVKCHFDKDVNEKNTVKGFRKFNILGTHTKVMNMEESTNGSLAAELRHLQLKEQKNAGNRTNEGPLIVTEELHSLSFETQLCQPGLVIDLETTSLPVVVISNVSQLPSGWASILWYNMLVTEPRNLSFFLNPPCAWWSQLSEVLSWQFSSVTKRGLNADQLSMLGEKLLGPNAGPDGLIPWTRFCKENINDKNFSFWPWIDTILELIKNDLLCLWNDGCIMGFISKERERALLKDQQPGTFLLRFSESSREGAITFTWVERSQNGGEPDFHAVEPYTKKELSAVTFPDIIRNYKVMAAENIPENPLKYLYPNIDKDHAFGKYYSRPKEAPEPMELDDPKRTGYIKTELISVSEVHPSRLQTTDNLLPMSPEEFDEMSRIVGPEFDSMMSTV
Experimental: as §1, §2, §3

[6] = test system: NIH3T3v-Src; assay: Cell proliferation of v-Src-transformed fibroblasts; assay type: cell-based, mouse; conditions: FIG. 6
Experimental: (§4) FIGS. 6A and 6B show the effects of platinum complexes on cell proliferation and viability. […] Values are the mean and S.D. of 3-4 independent determinations.
Proliferating cells were counted by phase-contrast microscopy for viable cells (using trypan blue exclusion. TUNEL staining was carried according to supplier's instructions to detect apoptotic cells. Cells (NIH3T3 or NIH3T3/v-Src) were first treated with or without compounds 24-48 h prior to staining.
(§5) The effects of platinum complexes on cell proliferation measured by [^3H]-thymidine incorporation were investigated.

[7] = test system: human breast and non-small cell lung cancer cell lines; assay: Cell proliferation ([3H]-thymidine incorporation) of human breast and non-small cell lung cancer cell lines; assay type: cell-based; conditions: FIG. 6
Excerpt: as §4, §5

T2 sequence (P42227 2-770 limits assumed): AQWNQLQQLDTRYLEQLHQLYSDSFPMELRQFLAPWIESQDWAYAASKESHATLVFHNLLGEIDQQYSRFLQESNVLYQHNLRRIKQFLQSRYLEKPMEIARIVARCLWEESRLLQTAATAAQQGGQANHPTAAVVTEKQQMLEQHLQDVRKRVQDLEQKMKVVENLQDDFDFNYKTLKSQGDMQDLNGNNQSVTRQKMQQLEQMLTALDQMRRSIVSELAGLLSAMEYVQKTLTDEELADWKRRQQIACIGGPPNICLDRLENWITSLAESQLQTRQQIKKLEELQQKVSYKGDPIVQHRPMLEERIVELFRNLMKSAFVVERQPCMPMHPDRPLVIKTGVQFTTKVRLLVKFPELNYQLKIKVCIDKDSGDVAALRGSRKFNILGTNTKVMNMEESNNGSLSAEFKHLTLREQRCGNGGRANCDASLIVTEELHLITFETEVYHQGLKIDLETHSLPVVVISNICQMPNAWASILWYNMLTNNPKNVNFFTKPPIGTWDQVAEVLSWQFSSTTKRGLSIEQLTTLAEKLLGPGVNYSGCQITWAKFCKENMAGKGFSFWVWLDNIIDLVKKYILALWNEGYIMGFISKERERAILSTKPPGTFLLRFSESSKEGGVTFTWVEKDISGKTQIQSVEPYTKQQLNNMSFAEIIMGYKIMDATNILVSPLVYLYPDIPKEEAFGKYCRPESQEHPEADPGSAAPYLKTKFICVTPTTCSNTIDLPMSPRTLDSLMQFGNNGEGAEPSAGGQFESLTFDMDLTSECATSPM
T1 sequence (P42227 2-770 limits assumed, one chain of several): as the sequence (P42227 2-770 limits assumed) above

| SMILES | Stat3-dependent induction of luciferase reporter [1] | pIC50 [2] | Inhibitory effect on Stat5 DNA-binding activity (EMSA) [3] | Level of DNA-binding activity of Stat3 (EMSA) [4] | pIC50 [4] | pIC50 [5] | Level of DNA-binding activity of Stat1 (EMSA) ([5]; hSIE probe) | Growth of Src-transformed mouse fibroblasts ([3H]-thymidine incorporation) [6] | Growth of human breast and non-small cell lung cancer cell lines ([3H]-thymidine incorporation) [7] | pIC50 ([2]; nuclear extracts pre-incubated 30 min at room temperature, hSIE probe, read-out: IC50 for disruption of STAT DNA-binding activity in vitro, Stat1:Stat3) | pIC50 ([5]; nuclear extracts pre-incubated 30 min at room temperature, hSIE probe, read-out: IC50 for disruption of STAT DNA-binding activity in vitro, Stat1:Stat1) |
| --- | --- | --- | --- | --- | --- | --- | --- | --- | --- | --- | --- |
| O=[N+]([O-])[Pt]1([Cl])([Cl])([Cl])[NH]CC[NH]1 [ISS CPA-1] | significantly suppress | 5.03 | much reduced inhibitory effect | dose-dependent reduction | 5.30 | 4.70 | dose-dependent reduction | strongly inhibited | strongly inhibited |  |  |
| [NH2][Pt]([NH2])([Cl])([Cl])([Cl])[N+](=O)[O-] [ISS CPA-7] | significantly suppress |  | much reduced inhibitory effect | dose-dependent reduction | 5.82 |  | dose-dependent reduction | strongly inhibited | strongly inhibited | 5.46 | 5.40 |
